In patent US5905089A, “Use of sesquiterpene lactones for treatment of severe inflammatory disorders” (Board of Supervisors of Louisiana State University and …, priority 1998, dated 1999):

Legend:
[1] = tested on: COX-2; assay: Inhibition of the expression of COX-2 in LPS-stimulated macrophages (Table 1); assay type: cell-based
Method: Rat (Sprague-Dawley) alveolar macrophages were collected by broncho-alveolar lavage as described by Lee et al., J. Biol. Chem., vol.
(§1) Alveolar macrophages pretreated with aspirin were incubated with LPS (10 μg/ml) and various concentrations of parthenolide for 16h. The activity of de novo synthesized COX-2 was determined by measuring the levels of PGE2 produced from exogenous arachidonic acid. Activity of TNFα was determined by bioassay using L929 cells as described by Aggarwal et al., J. Biol. Chem., vol. […] Values in FIG. 2 are the means of triplicate samples for TNFα and duplicate samples for PGE2.

[2] = tested on: TNFα mRNA; assay: Steady state levels of TNFα mRNA in LPS-stimulated alveolar macrophages (RNase protection assay); assay type: cell-based, Rat (Sprague-Dawley); conditions: FIG. 3B (2h) and FIG. 4 (parthenolide 1 μg/ml, time course)
Method: (§2) Rat (Sprague-Dawley) alveolar macrophages were collected by broncho-alveolar lavage as described by Lee et al., J. Biol. Chem., vol. 267, pp. 25934-25938 (1992). The murine macrophage cell line RAW 264.7 (ATCC no. TIB-71) was cultured in Dubecco's modified Eagle's medium (DMEM) containing 10% heat-inactivated fetal bovine serum (FBS, Intergen). For the cyclooxygenase activity assay, cells were seeded in 24 well plates, and after near-confluency, cells were treated with aspirin (250 μM) for 2.5h to inactivate endogenous cyclooxygenase. […] COX activity was determined by measuring prostaglandin E2 concentrations in cells incubated with arachidonic acid (30 μM) for 10 minutes as described in Lee et al. (1992).
(§3) Total cellular RNA was isolated by TRIzoL reagent (Gibco, BRL). The RNase protection assay was performed as described in Chanmugan et al. (1995).
(§4) In FIG. 3B, alveolar macrophages were incubated with LPS in the presence of various concentrations of parthenolide for 2h. Steady state levels of mRNA were determined by RNase protection assay. In FIG. 4, alveolar macrophages were incubated with LPS in presence of 1 μg/ml of parthenolide for specified time periods. The concentrations of mRNA were determined by RNase protection assay.

[3] = tested on: P38; assay: Tyrosine phosphorylation of P38 in RAW 264.7 cells (antiphosphotyrosine immunoblot); assay type: cell-based, murine; conditions: 3h pretreatment, LPS 1 μg/ml 30 min; FIG. 5A
Method: as §2
(§5) This detection technique was carried out essentially as described in Chanmugan et al. (1995) using 4G10 monoclonal antiphosphotyrosine antibody (UBI) and the ECL detection system (Amersham).
(§6) Parthenolide suppressed LPS-stimulated tyrosine phosphorylation of various proteins in RAW 264.7 cells as assessed by antiphosphotyrosine immunoblot, depicted in FIG. 5A. This inhibition was correlated with the suppressed expression of COX-2 and IL-1α. […] Therefore, the extent of tyrosine phosphorylation of JNK-1 was assessed by the electrophoretic mobility shift of phosphorylated JNK-1 as shown in FIG. 5B. […]

[4] = tested on: IL-1β mRNA; assay: Steady state levels of IL-1β mRNA in LPS-stimulated alveolar macrophages (RNase protection assay); assay type: cell-based, Rat (Sprague-Dawley); conditions: FIG. 3B (2h) and FIG. 4 (parthenolide 1 μg/ml, time course)
Method: as §2, §3, §4

[5] = tested on: ERK-1; assay: Kinase activity of ERK-1 in RAW 264.7 cells (in-gel kinase assay, MBP substrate); assay type: cell-based, murine; conditions: 3h pretreatment, LPS 1 μg/ml 30 min; FIG. 5
Method: as §2
This assay was performed according to the method described by Kameshita et al., Anal. Biochem., vol. 183, pp. 139-143 (1989) using myelin basic protein (MBP) as a substrate.
as §6

[6] = tested on: COX-2; assay: COX activity of de novo synthesized COX-2 (PGE2) in LPS-stimulated, aspirin-pretreated alveolar macrophages; assay type: cell-based, Rat (Sprague-Dawley); conditions: LPS 10 μg/ml, 16h; PGE2 from exogenous arachidonic acid; FIG. 2; read-out: IC50, inhibition of the expression of COX activity
Method: as §2
as §1, with “Recovered COX activity in cells pretreated with aspirin reflected de novo synthesized COX-2. Alveolar” for “Alveolar”, “vol. 260, pp. 2345-2354 (1985).” for “vol.”

[7] = tested on: IL-1α; assay: IL-1α expression in LPS-stimulated RAW 264.7 cells (Western blot); assay type: cell-based, murine; conditions: LPS 1 μg/ml; FIG. 5D
Method: as §2
The protein levels of COX-2 and GAPDH were assessed by Western blot analysis using polyclonal antibodies as described in Lee et al. (1992). Polyclonal antibodies for IL-1α and JNK-1 were purchased from Genzyme and Santa Cruz Biotech, respectively.
Parthenolide suppressed LPS-stimulated tyrosine phosphorylation of various proteins in RAW 264.7 cells as assessed by antiphosphotyrosine immunoblot, depicted in FIG. 5A. This inhibition was correlated with the suppressed expression of COX-2 and IL-1α. RAW 264.7 cells were pretreated with parthenolide in various concentrations or with herbimycin A (0.5 μg/ml) for 3h, and then stimulated with LPS (1 μg/ml) in the presence of the inhibitors for 30 min. […] Therefore, the extent of tyrosine phosphorylation of JNK-1 was assessed by the electrophoretic mobility shift of phosphorylated JNK-1 as shown in FIG. 5B. Parthenolide inhibited tyrosine phosphorylation of JNK-1. Another protein tyrosine kinase inhibitor, herbimycin A ([…]), inhibited tyrosine phosphorylation of the MAPK subfamily.
The mechanism by which parthenolide inhibits protein tyrosine phosphorylation is not currently known. It has been speculated that the tyrosine kinase inhibitor herbimycin A inactivates p60^v-src kinase by irreversibly binding to the sulphydryl (SH) groups of p60^v-src kinase. Y. Uehara et al., Biochem. Biophys. Res. Commun., vol. 163, pp. 803-809 (1989). The inactivation by herbimycin may occur through conjugation between highly polarized double bonds in the benzoquinone moiety of herbimycin A and the SH group of sulphydryl compounds. Without wishing to be bound by this theory, the α-methylenebutyrolactone in parthenolide may interact with biological nucleophiles such as sulphydryl groups. Indeed, pretreating cells with sulphydryl compounds abrogated the inhibitory effect of parthenolide on LPS-induced activation of MAPKs as shown in FIG. 6A. […]

[8] = tested on: ERK-1; assay: Tyrosine phosphorylation of ERK-1 in RAW 264.7 cells (antiphosphotyrosine immunoblot); assay type: cell-based, murine; conditions: 3h pretreatment, LPS 1 μg/ml 30 min; FIG. 5A
Method: as §2, §5, §6

## C=C1C(=O)O[C@H]2[C@H]1CC/C(C)=C/CC[C@@]1(C)O[C@@H]21 [Compound 1, Parthenolide]
[1]; IC50 determined at multiple dose levels
  IC50, inhibiting the expression of COX-2: 0.2 µg/mL
[1]; comparison among tested compounds
  inhibitory activity (COX-2 expression), in words: highest inhibitory activity
[2]
  steady state levels of mRNA for TNFα: inhibited
[3]
  tyrosine phosphorylation of P38: inhibited by parthenolide in a dose-dependent manner
[4]
  steady state levels of mRNA for IL-1β: inhibited
[5]
  kinase activity of ERK-1: dose-dependent inhibition
[6]
  IC50: ~800 nM
[7]
  expression of IL-1α in RAW 264.7 cells: suppressed
[8]
  tyrosine phosphorylation of ERK-1: inhibited by parthenolide in a dose-dependent manner
